Patent US20260224588A1, “BENZODIAZEPINONE-DERIVED INHIBITORS OF EGFR AND HER2” (The Research Foundation for the State University of New York, priority 2023, published 2026)
Like-named read-outs stand apart in the source and are kept apart here.

Legend:
MARK1 = MARK1 (Homo sapiens, UniProt Q9P0L2); assay: KINOMEscan; assay type: binding; conditions: 1 μM of compound 4; read-out: POC
[1] = molecular target: T1, RPS6KA4(Kin.Dom.2-C-terminal) (Homo sapiens, UniProt O75676); assay: KINOMEscan; assay type: binding; conditions: 1 μM of compound 4; read-out: POC
T1 construct: RPS6KA4(Kin.Dom.2-C-terminal); purchased Eurofins DiscoverX Corporation (KINOMEscan screening service)

ARK5 = ARK5 (Homo sapiens, UniProt O60285); assay: KINOMEscan; assay type: binding; conditions: 1 μM of compound 4; read-out: POC
[2] = molecular target: T2, RPS6KA5(Kin.Dom.2-C-terminal) (Homo sapiens, UniProt O75582); assay: KINOMEscan; assay type: binding; conditions: 1 μM of compound 4; read-out: POC
T2 construct: RPS6KA5(Kin.Dom.2-C-terminal); purchased Eurofins DiscoverX Corporation (KINOMEscan screening service)

p38-gamma = molecular target: T3, p38-gamma (Homo sapiens, UniProt P53778); assay: KINOMEscan; assay type: binding; conditions: 1 μM of compound 4; read-out: POC
T3 construct: purchased Eurofins DiscoverX Corporation (KINOMEscan)

PIK3CA(I800L) = PIK3CA(I800L) (Homo sapiens, UniProt P42336, I800L); assay: KINOMEscan; assay type: binding; conditions: 1 μM of compound 4; read-out: POC
PHKG1 = PHKG1 (Homo sapiens, UniProt Q16816); assay: KINOMEscan; assay type: binding; conditions: 1 μM of compound 4; read-out: POC
FGFR4 = molecular target: T4, FGFR4 (Homo sapiens, UniProt P22455); assay: KINOMEscan; assay type: binding; conditions: 1 μM of compound 4; read-out: POC
T4 construct: purchased Eurofins DiscoverX Corporation
T4 sequence (P22455 22-802): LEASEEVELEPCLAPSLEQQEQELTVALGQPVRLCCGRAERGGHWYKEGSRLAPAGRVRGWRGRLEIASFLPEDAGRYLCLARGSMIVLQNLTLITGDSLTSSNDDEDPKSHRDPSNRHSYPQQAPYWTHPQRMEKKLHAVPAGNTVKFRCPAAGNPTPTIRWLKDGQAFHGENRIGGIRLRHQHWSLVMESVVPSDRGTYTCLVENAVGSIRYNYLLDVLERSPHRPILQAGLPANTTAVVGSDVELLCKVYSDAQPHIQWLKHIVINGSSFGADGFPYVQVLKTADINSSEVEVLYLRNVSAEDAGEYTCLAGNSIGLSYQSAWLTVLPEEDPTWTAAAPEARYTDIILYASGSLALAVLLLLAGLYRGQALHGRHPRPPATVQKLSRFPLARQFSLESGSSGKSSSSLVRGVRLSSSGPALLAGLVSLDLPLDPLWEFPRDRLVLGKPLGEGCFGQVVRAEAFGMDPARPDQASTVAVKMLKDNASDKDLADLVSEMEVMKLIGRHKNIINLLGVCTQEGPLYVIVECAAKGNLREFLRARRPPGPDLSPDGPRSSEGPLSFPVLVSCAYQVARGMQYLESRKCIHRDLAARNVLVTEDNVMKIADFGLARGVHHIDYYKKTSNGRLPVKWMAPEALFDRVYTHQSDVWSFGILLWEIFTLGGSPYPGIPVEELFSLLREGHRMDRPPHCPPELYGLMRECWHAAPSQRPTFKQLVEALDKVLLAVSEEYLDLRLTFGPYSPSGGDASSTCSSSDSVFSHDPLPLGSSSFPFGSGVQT

PKN1 = PKN1 (Homo sapiens, UniProt Q16512); assay: KINOMEscan; assay type: binding; conditions: 1 μM of compound 4; read-out: POC
Chain of PKN1 (Q16512 whole entry): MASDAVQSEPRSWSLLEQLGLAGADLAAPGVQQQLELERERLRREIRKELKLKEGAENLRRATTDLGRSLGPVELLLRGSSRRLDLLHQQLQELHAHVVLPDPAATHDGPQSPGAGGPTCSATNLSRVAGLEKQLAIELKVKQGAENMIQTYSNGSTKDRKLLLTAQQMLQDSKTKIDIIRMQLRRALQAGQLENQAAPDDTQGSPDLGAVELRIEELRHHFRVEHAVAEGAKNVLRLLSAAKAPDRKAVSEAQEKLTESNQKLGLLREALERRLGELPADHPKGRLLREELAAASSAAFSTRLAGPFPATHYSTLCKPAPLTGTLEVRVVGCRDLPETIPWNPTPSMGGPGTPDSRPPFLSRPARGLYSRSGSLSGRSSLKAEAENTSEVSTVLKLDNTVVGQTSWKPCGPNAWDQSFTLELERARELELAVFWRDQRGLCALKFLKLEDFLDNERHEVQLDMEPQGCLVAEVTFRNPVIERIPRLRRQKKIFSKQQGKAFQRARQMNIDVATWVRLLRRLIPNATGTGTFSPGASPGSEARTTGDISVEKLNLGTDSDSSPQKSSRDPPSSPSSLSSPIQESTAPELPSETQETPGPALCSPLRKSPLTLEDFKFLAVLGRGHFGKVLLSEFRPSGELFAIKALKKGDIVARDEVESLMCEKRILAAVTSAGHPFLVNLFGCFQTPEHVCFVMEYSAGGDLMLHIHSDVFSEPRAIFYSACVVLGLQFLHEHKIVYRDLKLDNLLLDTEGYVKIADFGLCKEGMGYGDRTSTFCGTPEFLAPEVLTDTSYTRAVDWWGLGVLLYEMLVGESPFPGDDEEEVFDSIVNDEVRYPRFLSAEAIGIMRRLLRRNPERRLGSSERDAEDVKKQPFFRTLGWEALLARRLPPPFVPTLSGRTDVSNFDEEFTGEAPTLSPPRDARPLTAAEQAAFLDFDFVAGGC

HIPK1 = molecular target: T5, HIPK1 (Homo sapiens, UniProt Q86Z02); assay: KINOMEscan; assay type: binding; conditions: 1 μM of compound 4; read-out: POC
T5 construct: purchased Eurofins DiscoverX Corporation

MST2 = MST2 (Homo sapiens, UniProt Q13188); assay: KINOMEscan; assay type: binding; conditions: 1 μM of compound 4; read-out: POC
FGFR3(G697C) = molecular target: T6, FGFR3(G697C) (Homo sapiens, UniProt P22607, G697C); assay: KINOMEscan; assay type: binding; conditions: 1 μM of compound 4; read-out: POC
T6 construct: purchased Eurofins DiscoverX Corporation

TAOK2 = molecular target: T7, TAOK2 (Homo sapiens, UniProt Q9UL54); assay: KINOMEscan; assay type: binding; conditions: 1 μM of compound 4; read-out: POC
T7 construct: purchased Eurofins DiscoverX Corporation

BRAF(V600E) = BRAF(V600E) (Homo sapiens, UniProt P15056, V600E); assay: KINOMEscan; assay type: binding; conditions: 1 μM of compound 4; read-out: POC
Chain of BRAF(V600E) (P15056 whole entry V600E): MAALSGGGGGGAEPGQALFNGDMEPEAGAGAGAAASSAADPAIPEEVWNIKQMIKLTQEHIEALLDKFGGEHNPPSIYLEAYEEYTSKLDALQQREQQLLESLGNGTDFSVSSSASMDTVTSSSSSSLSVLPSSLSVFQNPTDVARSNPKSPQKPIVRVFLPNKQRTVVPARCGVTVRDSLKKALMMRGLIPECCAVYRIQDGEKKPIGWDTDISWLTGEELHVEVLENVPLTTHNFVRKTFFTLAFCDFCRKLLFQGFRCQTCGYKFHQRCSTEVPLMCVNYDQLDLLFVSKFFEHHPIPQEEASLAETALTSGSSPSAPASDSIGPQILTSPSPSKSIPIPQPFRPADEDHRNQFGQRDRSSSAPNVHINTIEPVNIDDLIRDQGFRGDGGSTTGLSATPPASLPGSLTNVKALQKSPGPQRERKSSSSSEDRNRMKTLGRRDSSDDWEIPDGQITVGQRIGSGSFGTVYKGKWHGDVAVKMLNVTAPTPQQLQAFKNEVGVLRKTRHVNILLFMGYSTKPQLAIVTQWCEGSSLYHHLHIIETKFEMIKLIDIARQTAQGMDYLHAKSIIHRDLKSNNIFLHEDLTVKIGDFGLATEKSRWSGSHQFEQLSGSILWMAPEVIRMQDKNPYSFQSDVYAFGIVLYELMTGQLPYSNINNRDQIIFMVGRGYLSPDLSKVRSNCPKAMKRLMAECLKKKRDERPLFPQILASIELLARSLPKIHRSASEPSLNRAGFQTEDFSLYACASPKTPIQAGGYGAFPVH

[3] = molecular target: T8, ABL1(H396P)-phosphorylated (Homo sapiens, UniProt P00519, H396P); assay: KINOMEscan; assay type: binding; conditions: 1 μM of compound 4; read-out: POC
T8 construct: purchased Eurofins DiscoverX Corporation

CDKL5 = CDKL5 (Homo sapiens, UniProt O76039); assay: KINOMEscan; assay type: binding; conditions: 1 μM of compound 4; read-out: POC
[4] = test system: L858R EGFR mutant Ba/F3 cells; assay: Ba/F3 cellular antiproliferative experiments; assay type: cell-based; conditions: Mus musculus, BaF3, 72 h, Ba/F3, 72 hours; read-out: Anti-proliferative EC50 ± SE, LR
Description: (§1) Ba/F3 Cellular Antiproliferative Experiments. The parental Ba/F3 cells was a generous gift from the laboratory of Dr. David Weinstock (in 2014), Dr. Pasi Jänne (2020) and was used to generate the wildtype EGFR, wildtype HER2, L858R, and L858R/T790M EGFR mutant Ba/F3 cells. These cells were previously characterized as described. All Ba/F3 cells were cultured in RPMI1640 media with 10% fetal bovine serum and 1% penicillin and streptomycin. All cell lines were tested negative for Mycoplasma using Mycoplasma Plus PCR Primer Set (Agilent) and were passaged and/or used for no longer than 4 weeks for all experiments. Assay reagents were purchased from MilliporeSigma (Cat #R7017-5G). Ba/F3 cells were plated and treated with increasing concentrations of inhibitors in triplicate for 72 hours. Compounds were dispensed using the Tecan D300e Digital Dispenser. Cellular growth or the inhibition of growth was assessed by resazurin viability assay. All experiments were repeated at least 3 times and values were reported as an average of n=3 with standard deviation.

[5] = test system: wildtype HER2 Ba/F3 cells; assay: Ba/F3 cellular antiproliferative experiments; assay type: cell-based; conditions: Mus musculus, BaF3; Ba/F3, 72 hours; read-out: Anti-proliferative EC50 ± SE, HER2
Description: as §1

[6] = test system: L858R/T790M EGFR mutant Ba/F3 cells; assay: Ba/F3 cellular antiproliferative experiments; assay type: cell-based; conditions: Ba/F3, 72 hours, read-out: Anti-proliferative EC50 ± SE, LR/TM
Description: as §1

FYN = molecular target: T9, FYN (Homo sapiens, UniProt P06241); assay: KINOMEscan; assay type: binding; conditions: 1 μM of compound 4; read-out: POC
T9 construct: purchased Eurofins DiscoverX Corporation

OSR1 = molecular target: T10, OSR1 (Homo sapiens, UniProt O95747); assay: KINOMEscan; assay type: binding; conditions: 1 μM of compound 4; read-out: POC
T10 construct: purchased Eurofins DiscoverX Corporation (KINOMEscan)

SRMS = molecular target: T11, SRMS (Homo sapiens, UniProt Q9H3Y6); assay: KINOMEscan; assay type: binding; conditions: 1 μM of compound 4; read-out: POC
T11 construct: purchased Eurofins DiscoverX (KINOMEscan service)
T11 sequence (Q9H3Y6 whole entry): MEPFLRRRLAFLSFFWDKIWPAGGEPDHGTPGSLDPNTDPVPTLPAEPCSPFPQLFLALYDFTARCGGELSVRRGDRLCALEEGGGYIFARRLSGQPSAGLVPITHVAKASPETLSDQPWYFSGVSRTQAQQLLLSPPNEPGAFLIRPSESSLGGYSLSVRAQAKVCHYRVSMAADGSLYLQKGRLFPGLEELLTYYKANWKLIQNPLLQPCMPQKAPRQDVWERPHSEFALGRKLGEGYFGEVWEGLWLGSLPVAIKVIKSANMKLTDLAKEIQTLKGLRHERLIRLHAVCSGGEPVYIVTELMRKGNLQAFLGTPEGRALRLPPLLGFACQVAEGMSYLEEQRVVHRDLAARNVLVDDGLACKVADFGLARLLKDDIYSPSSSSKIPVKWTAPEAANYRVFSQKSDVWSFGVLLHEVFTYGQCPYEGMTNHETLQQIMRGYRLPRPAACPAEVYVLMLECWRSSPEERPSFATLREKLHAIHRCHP

KIT(V559D) = KIT(V559D) (Homo sapiens, UniProt P10721, V559D); assay: KINOMEscan; assay type: binding; conditions: 1 μM of compound 4; read-out: POC
CDC2L1 = CDC2L1 (Homo sapiens, UniProt P21127); assay: KINOMEscan; assay type: binding; conditions: 1 μM of compound 4; read-out: POC
TAK1 = molecular target: T12, TAK1 (Homo sapiens, UniProt O43318); assay: KINOMEscan; assay type: binding; conditions: 1 μM of compound 4; read-out: POC
T12 construct: purchased Eurofins DiscoverX Corporation

CDK11 = CDK11 (Homo sapiens, UniProt Q9BWU1); assay: KINOMEscan; assay type: binding; conditions: 1 μM of compound 4; read-out: POC
Chain of CDK11 (Q9BWU1 whole entry): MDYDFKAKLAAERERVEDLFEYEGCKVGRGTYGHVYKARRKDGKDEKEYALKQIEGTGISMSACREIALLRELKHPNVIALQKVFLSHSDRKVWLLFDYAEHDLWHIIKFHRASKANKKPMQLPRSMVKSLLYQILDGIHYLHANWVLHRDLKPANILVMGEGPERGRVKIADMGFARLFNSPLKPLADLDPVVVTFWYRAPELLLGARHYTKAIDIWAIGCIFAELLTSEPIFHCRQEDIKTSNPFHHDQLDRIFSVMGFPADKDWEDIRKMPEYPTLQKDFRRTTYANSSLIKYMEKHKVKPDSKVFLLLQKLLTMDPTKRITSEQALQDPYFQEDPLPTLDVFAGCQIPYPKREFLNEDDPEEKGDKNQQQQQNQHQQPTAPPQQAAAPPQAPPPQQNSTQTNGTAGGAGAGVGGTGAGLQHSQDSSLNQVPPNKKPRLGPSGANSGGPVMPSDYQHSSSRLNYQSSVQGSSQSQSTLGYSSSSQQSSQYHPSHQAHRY

PKAC-alpha = PKAC-alpha (Homo sapiens, UniProt P17612); assay: KINOMEscan; assay type: binding; conditions: 1 μM of compound 4; read-out: POC
MAK = MAK (Homo sapiens, UniProt P20794); assay: KINOMEscan; assay type: binding; conditions: 1 μM of compound 4; read-out: POC
LIMK2 = LIMK2 (Homo sapiens, UniProt P53671); assay: KINOMEscan; assay type: binding; conditions: 1 μM of compound 4; read-out: POC
MAP3K2 = MAP3K2 (Homo sapiens, UniProt Q9Y2U5); assay: KINOMEscan; assay type: binding; conditions: 1 μM of compound 4; read-out: POC
Chain of MAP3K2 (Q9Y2U5 whole entry): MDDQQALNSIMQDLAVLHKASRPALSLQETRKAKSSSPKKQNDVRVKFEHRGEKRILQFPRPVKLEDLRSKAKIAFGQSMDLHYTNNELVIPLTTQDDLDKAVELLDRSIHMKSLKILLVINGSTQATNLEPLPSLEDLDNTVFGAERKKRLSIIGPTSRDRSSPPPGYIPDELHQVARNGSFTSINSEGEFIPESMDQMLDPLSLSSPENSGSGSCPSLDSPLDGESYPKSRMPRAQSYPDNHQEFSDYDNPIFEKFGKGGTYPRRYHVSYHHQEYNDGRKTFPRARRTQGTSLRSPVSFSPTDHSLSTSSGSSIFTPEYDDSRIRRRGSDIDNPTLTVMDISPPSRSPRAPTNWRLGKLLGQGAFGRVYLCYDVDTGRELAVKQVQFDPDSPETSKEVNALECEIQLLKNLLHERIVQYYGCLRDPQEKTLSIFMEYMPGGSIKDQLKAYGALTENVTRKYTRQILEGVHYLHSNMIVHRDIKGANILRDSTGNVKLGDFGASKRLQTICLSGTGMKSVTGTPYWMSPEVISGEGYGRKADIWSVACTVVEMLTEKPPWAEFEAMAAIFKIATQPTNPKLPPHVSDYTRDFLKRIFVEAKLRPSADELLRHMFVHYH

PRKR = PRKR (Homo sapiens, UniProt P19525); assay: KINOMEscan; assay type: binding; conditions: 1 μM of compound 4; read-out: POC

Chain of MARK1 (Q9P0L2 whole entry): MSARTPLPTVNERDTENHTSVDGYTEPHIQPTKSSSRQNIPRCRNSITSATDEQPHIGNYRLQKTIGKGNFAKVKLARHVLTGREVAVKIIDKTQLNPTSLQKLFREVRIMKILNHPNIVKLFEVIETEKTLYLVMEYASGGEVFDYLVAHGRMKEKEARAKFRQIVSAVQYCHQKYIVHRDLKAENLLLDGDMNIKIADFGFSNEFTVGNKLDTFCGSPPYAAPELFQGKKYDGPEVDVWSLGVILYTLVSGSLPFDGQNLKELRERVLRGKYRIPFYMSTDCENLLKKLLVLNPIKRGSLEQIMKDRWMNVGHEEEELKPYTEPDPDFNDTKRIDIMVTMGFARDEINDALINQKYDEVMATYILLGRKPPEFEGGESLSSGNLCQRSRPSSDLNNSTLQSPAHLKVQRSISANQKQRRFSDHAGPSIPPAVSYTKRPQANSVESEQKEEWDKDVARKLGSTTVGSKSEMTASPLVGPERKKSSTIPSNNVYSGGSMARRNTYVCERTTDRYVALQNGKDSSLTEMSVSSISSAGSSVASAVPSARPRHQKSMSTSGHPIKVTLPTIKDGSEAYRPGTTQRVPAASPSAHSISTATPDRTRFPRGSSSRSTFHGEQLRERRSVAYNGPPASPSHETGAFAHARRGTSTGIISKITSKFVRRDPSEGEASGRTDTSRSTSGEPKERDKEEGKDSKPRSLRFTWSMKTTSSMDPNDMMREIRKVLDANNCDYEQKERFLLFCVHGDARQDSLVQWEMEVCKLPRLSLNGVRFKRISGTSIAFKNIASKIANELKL

Compound `C=CC(=O)Nc1ccc(OC)c(Nc2cc(-c3[nH]c(CC)nc3-c3cccc(NC(=O)c4cccc5c4NC(=O)c4ccccc4N5)c3)ccn2)c1` [Compound 4, N-(3-(5-(2-((5-Acrylamido-2-methoxyphenyl)amino)pyridin-4-yl)-2-ethyl-1H-imidazol-4-yl)phenyl)-11-oxo-10,11-dihydro-5H-dibenzo[b,e][1,4]diazepine-9-carboxamide] has a remaining binding at 1 µM (MARK1) of 92%, a remaining binding at 1 µM [1] of 75% and a remaining binding at 1 µM (ARK5) of 100%. The remaining binding at 1 µM [2] was 100%, the remaining binding at 1 µM (p38-gamma) was 100% and the remaining binding at 1 µM (PIK3CA(I800L)) was 100%. For the same compound, the remaining binding at 1 µM (PHKG1) was 96%, the remaining binding at 1 µM (FGFR4) was 100% and the remaining binding at 1 µM (PKN1) was 88%. It also gave a remaining binding at 1 µM (HIPK1) of 51%, a remaining binding at 1 µM (MST2) of 14% and a remaining binding at 1 µM (FGFR3(G697C)) of 100%. The remaining binding at 1 µM (TAOK2) was 100%, the remaining binding at 1 µM (BRAF(V600E)) was 100% and the remaining binding at 1 µM [3] was 74%. The remaining binding at 1 µM (CDKL5) was 98%, the EC50 [4] was roughly 200 nM and the EC50 [5] was 1930 ± 1010 nM. It also gave an EC50 [6] of 770 ± 390 nM, an EC50 ([6]; Mus musculus, BaF3, 72 h) of roughly 750 nM and a remaining binding at 1 µM (FYN) of 64%. For the same compound, the remaining binding at 1 µM (OSR1) was 89%, the remaining binding at 1 µM (SRMS) was 61% and the remaining binding at 1 µM (KIT(V559D)) was 100%. It also gave a remaining binding at 1 µM (CDC2L1) of 100%, a remaining binding at 1 µM (TAK1) of 95% and a remaining binding at 1 µM (CDK11) of 100%. For the same compound, the remaining binding at 1 µM (PKAC-alpha) was 100%, the remaining binding at 1 µM (MAK) was 89% and the remaining binding at 1 µM (LIMK2) was 93%. It also gave a remaining binding at 1 µM (MAP3K2) of 100% and a remaining binding at 1 µM (PRKR) of 87%.
